Assay results: US10864207B2, “Method of treating endothelial dysfunction” (Celagenex Research (India) Pvt. Ltd., priority 2019, dated 2020)

Experiments:
PGI2 gene = PGI2 gene expression by semi-quantitative RT-PCR in H9C2 cells; type: cell-based, rat; settings: for PGI2 expression in % / Regulation in Terms of Folds PGI2: normalized to GAPDH; for Regulation in Terms of Folds PGI2: control = 1.00
Description: […] […] [Hunter C. Champion et al. PNAS, 2005; 102:5:1661-1666].
PGI2 were estimated for the test substance by gene expression method, where the level of expression of PGI2 expression on Rat Cardiomyocytes (H9C2) was determined with respect to untreated H9C2 cells.
(§1) The H9C2 cells treated with drug were subjected to cell lysis by treating with Tri-extraction reagent. Chloroform was added, to isolate the total RNA from the sample and subjected for centrifugation. Out of the three distinct layers observed, upper layer was collected in fresh tube and equal volume of isopropanol was added and incubated at −20° C. for 10 mins. After the incubation followed by centrifugation, appropriate volume of ethanol was added to resuspend the pellet. After incubation and centrifugation, the pellet was air dried and appropriate volume of TAE buffer was added. The isolated total RNA was further used for cDNA synthesis. cDNA was synthesized by priming with oligo-dT primers followed by reverse transcriptase enzyme treatment according to manufacturers protocol (Thermoscienctific). The cDNA thus synthesized was taken up for PCR for the amplification of PGI2 and GAPDH/β-Actin (internal control).
(§2) The mRNA expression levels of PGI2 were determined using semi-quantitative reverse transcriptase-polymerase chain reaction (RT-PCR). 50 μl of the reaction mixture was subjected to PCR for amplification of PGI2. cDNAs using specifically designed primers procured from Eurofins, India and GAPDH/β-Actin (House keeping genes) was co-amplified with each reaction as an internal control.
(§3) PGI2: 95° C. for 5 min followed by 35 cycles of denaturation at 95° C. for 30 seconds, annealing Tm for 30 seconds and extension at 72° C. for 45 seconds. This was followed by final extension at 72° C. for 10 min. The primers used in this example for I strand synthesis and IInd strand synthesis are disclosed in priority Indian Patent Application No. 201921000093, filed Jan. 2, 2019, which is incorporated herein by reference.

eNOS gene = eNOS gene expression by semi-quantitative RT-PCR in H9C2 cells; type: cell-based, rat; settings: for eNOS expression in % / Regulation in Terms of Folds eNOS: normalized to β-Actin; for Regulation in Terms of Folds eNOS: control = 1.00
Description: The test substances were evaluated for their gene expression activity in H9C2 (rat cardiomyocytes) and the concentration of test substances (G1, G2 and G3) taken for gene expression studies was 500 μg/ml. […] [Hunter C. Champion, et al. “PNAS, 2005; 102:5:1661-1666.]
eNOS levels were estimated for the test substance by gene expression method, where the level of expression of eNOS expression on […] Cardiomyocytes (H9C2) was determined with respect to untreated H9C2 cells.
as §1, with “test samples” for “drug”, “added” for “added,”, “manufacturer's” for “manufacturers”, “eNOS” for “PGI2”, “GAPDH” for “GAPDH/β-Actin”
as §2, with “eNOS” for “PGI2”, “eNOS.” for “PGI2.”
as §3, with “eNOS:” for “PGI2:”, “temperature” for “Tm”

Row | Structure (SMILES) | PGI2 gene expression increase as compared to the control (PGI2 gene; 500 μg/ml) | PGI2 expression in % (PGI2 gene; 500 μg/ml) | Regulation in Terms of Folds PGI2 (PGI2 gene; 500 μg/ml) | eNOS expression in % (eNOS gene; 500 μg/ml) | Regulation in Terms of Folds eNOS (eNOS gene; 500 μg/ml) | eNOS gene over-expression as compared to the control (eNOS gene; at tested doses (500 μg/ml)) | PGI2 expression in % (PGI2 gene; 250 μg/ml) | Regulation in Terms of Folds PGI2 (PGI2 gene; 250 μg/ml) | eNOS expression in % (eNOS gene; 250 μg/ml) | Regulation in Terms of Folds eNOS (eNOS gene; 250 μg/ml) | eNOS gene up-regulation over control (eNOS gene; standard sample (250 μg/ml))
1 | C[n+]1cccc(C(N)=O)c1 [Group G1, N^1-methyl nicotinamide chloride] | 0.14 folds | 14% | 1.14 fold | 21% | 1.21 fold | 0.21 folds |  |  |  |  | 
2 | O=[N+]([O-])OCC(CO[N+](=O)[O-])O[N+](=O)[O-] [Nitroglycerin, reference compound] |  |  |  |  |  |  | 29% | 1.29 fold | 56% | 1.56 fold | 0.56 fold
